Measurements: patent publication US20120101093A1, “SUBSTITUTED IMIDAZO[1,2-A]PYRIDINE DERIVATIVES, PHARMACEUTICAL COMPOSITIONS, AND METHODS OF USE AS BETA-SECRETASE INHIBITORS” (HIGH POINT PHARMACEUTICALS, LLC, priority 2009, published 2012)

Molecular target: T1, BACE-1 enzyme (Homo sapiens, UniProt P56817)
T1 construct: purchased R & D Systems 931AS
Experiment: BACE Fluorescence Resonance Energy Transfer (FRET) Assay
Assay type: biochemical
Conditions: pH 4-4.5, 30 min pre-incubation, about 1.5 hours reaction
How it was run: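 Fluorescence (ex 540, em 585 nm) after ~1.5 h room-temperature cleavage of a quenched rhodamine peptide tracks BACE-1 activity. Enzyme and compound first sit 30 min in pH 4-4.5 acetate buffer with CHAPS, Triton X-100, EDTA, 7.5% DMSO. Values given as IC50 or % inhibition.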

T1 sequence (P56817 46-457 limits assumed): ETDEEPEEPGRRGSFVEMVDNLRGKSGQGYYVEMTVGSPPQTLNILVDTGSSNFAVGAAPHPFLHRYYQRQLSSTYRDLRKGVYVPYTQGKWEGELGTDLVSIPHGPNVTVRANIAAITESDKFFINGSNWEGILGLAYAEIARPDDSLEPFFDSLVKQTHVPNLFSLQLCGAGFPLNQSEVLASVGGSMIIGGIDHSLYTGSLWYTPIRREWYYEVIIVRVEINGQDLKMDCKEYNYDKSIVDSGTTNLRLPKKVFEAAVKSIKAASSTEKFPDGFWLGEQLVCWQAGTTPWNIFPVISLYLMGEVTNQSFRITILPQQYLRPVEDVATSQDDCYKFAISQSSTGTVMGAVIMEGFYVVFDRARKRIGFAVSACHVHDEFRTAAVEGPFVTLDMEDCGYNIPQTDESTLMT

Structure (SMILES): O=C(Nc1nc2cc(-c3cccc(C(F)(F)F)c3)ccc2[nH]1)c1cn2c(CN3CCCCC3)cccc2n1 [Example 166, 5-Piperidin-1-ylmethyl-imidazo[1,2-a]pyridine-2-carboxylic acid [5-(3-trifluoromethyl-phenyl)-1H-benzoimidazol-2-yl]-amide]
- IC50: 0.79 µM

Structure (SMILES): CN(C)c1cc(F)cn2cc(C(=O)Nc3nc4cc(-c5cc(F)cc(Cl)c5)ccc4[nH]3)nc12 [Example 131, 8-Dimethylamino-6-fluoro-imidazo[1,2-a]pyridine-2-carboxylic acid [5-(3-chloro-5-fluoro-phenyl)-1H-benzoimidazol-2-yl]-amide]
- IC50: 1.01 µM

Structure (SMILES): CCN(C)Cc1cccn2cc(C(=O)Nc3nc4cc(-c5cccc(C(F)(F)F)c5)ccc4[nH]3)nc12 [Example 195, 8-[(Ethyl-methyl-amino)-methyl]-imidazo[1,2-a]pyridine-2-carboxylic acid [5-(3-trifluoromethyl-phenyl)-1H-benzoimidazol-2-yl]-amide]
- IC50: 1.08 µM

Structure (SMILES): O=C(Nc1nc2cc(-c3cccc(C(F)(F)F)c3)ccc2[nH]1)c1cn2ccc(CN3CCNCC3)cc2n1 [Example 203, 7-Piperazin-1-ylmethyl-imidazo[1,2-a]pyridine-2-carboxylic acid [5-(3-trifluoromethyl-phenyl)-1H-benzoimidazol-2-yl]-amide]
- IC50: 0.66 µM

Structure (SMILES): COc1cccc(-c2ccc3[nH]c(NC(=O)c4cn5c(C)cccc5n4)nc3c2)c1 [Example 25, 5-Methyl-imidazo[1,2-a]pyridine-2-carboxylic acid [5-(3-methoxy-phenyl)-1H-benzoimidazol-2-yl]-amide]
- IC50: 0.1 µM

Structure (SMILES): Cc1cccn2cc(C(=O)Nc3nc4cc(-c5cccc(C(F)(F)F)c5)ccc4n3C)nc12 [Example 241, 8-Methyl-imidazo[1,2-a]pyridine-2-carboxylic acid [1-methyl-5-(3-trifluoromethyl-phenyl)-1H-benzoimidazol-2-yl]-amide]
- IC50: 1.5 µM

Structure (SMILES): Cc1cccn2cc(C(=O)Nc3nc4cc(OC5CCCC5)ccc4[nH]3)nc12 [Example 31, 8-Methyl-imidazo[1,2-a]pyridine-2-carboxylic acid (5-cyclopentyloxy-1H-benzoimidazol-2-yl)-amide]
- IC50: 2.69 µM

Structure (SMILES): COCCn1c(NC(=O)c2cn3c(C)cccc3n2)nc2cc(-c3ccc(Cl)c(C(F)(F)F)c3)ccc21 [Example 242, 5-Methyl-imidazo[1,2-a]pyridine-2-carboxylic acid [5-(4-chloro-3-trifluoromethyl-phenyl)-1-(2-methoxy-ethyl)-1H-benzoimidazol-2-yl]-amide]
- IC50: 0.44 µM

Structure (SMILES): Cc1cccc2nc(C(=O)Nc3nc4cc(-c5ccc(OC(F)(F)F)cc5)ccc4[nH]3)cn12 [Example 98, 5-Methyl-imidazo[1,2-a]pyridine-2-carboxylic acid [5-(4-trifluoromethoxy-phenyl)-1H-benzoimidazol-2-yl]-amide]
- IC50: 0.44 µM

Structure (SMILES): O=C(Nc1nc2cc(-c3cc(F)cc(Cl)c3)ccc2[nH]1)c1cn2c(N3CCC(O)CC3)cccc2n1 [Example 158, 5-(4-Hydroxy-piperidin-1-yl)-imidazo[1,2-a]pyridine-2-carboxylic acid [5-(3-chloro-5-fluoro-phenyl)-1H-benzoimidazol-2-yl]-amide]
- IC50: 0.1 µM

Structure (SMILES): CCOC(=O)c1ccn2cc(C(=O)Nc3nc4cc(-c5cc(F)cc(Cl)c5)ccc4[nH]3)nc2c1 [Example 114, 2-[5-(3-Chloro-5-fluoro-phenyl)-1H-benzoimidazol-2-ylcarbamoyl]-imidazo[1,2-a]pyridine-7-carboxylic acid ethyl ester]
- IC50: 0.29 µM

Structure (SMILES): CO[C@@H]1CCN(c2cc(F)cn3cc(C(=O)Nc4nc5cc(-c6cc(F)cc(Cl)c6)ccc5[nH]4)nc23)C1 [Example 160, 6-Fluoro-8-((R)-3-methoxy-pyrrolidin-1-yl)-imidazo[1,2-a]pyridine-2-carboxylic acid [5-(3-chloro-5-fluoro-phenyl)-1H-benzoimidazol-2-yl]-amide]
- IC50: 0.75 µM

Structure (SMILES): Cc1cccn2cc(C(=O)Nc3nc4cc(-c5ccc(C(F)(F)F)c(Cl)c5)ccc4[nH]3)nc12 [Example 93, 8-Methyl-imidazo[1,2-a]pyridine-2-carboxylic acid [5-(3-chloro-4-trifluoromethyl-phenyl)-1H-benzoimidazol-2-yl]-amide]
- IC50: 1.78 µM

Structure (SMILES): CCc1cccc2nc(C(=O)Nc3nc4cc(-c5cccc(OC(F)(F)F)c5)ccc4[nH]3)cn12 [Example 224, 5-ethyl-N-{5-[3-(trifluoromethoxy)phenyl]-1H-benzimidazol-2-yl}imidazo[1,2-a]pyridine-2-carboxamide]
- IC50: 0.55 µM

Structure (SMILES): Cc1cccc2nc(C(=O)Nc3nc4cc(N5CCC(c6ccccc6)CC5)ccc4[nH]3)cn12 [Example 36, 5-Methyl-imidazo[1,2-a]pyridine-2-carboxylic acid [5-(4-phenyl-piperidin-1-yl)-1H-benzoimidazol-2-yl]-amide]
- IC50: 1.46 µM

Structure (SMILES): Cc1cccc2nc(C(=O)Nc3nc4cc(-c5cc(C(F)(F)F)ccc5Cl)ccc4[nH]3)cn12 [Example 67, 5-Methyl-imidazo[1,2-a]pyridine-2-carboxylic acid [5-(2-chloro-5-trifluoromethyl-phenyl)-1H-benzoimidazol-2-yl]-amide]
- IC50: 0.53 µM

Structure (SMILES): O=C(Nc1nc2cc(-c3cccc(C(F)(F)F)c3)ccc2[nH]1)c1cn2ccc(CNCCN3CCOCC3)cc2n1 [Example 210, 7-[(2-Morpholin-4-yl-ethylamino)-methyl]-imidazo[1,2-a]pyridine-2-carboxylic acid [5-(3-trifluoromethyl-phenyl)-1H-benzoimidazol-2-yl]-amide]
- IC50: 0.18 µM

Structure (SMILES): Cc1ccc2nc(C(=O)Nc3nc4cc(OCc5ccc(C(F)(F)F)cc5)ccc4[nH]3)cn2c1 [Example 60, 6-Methyl-imidazo[1,2-a]pyridine-2-carboxylic acid [5-(4-trifluoromethyl-benzyloxy)-1H-benzoimidazol-2-yl]-amide]
- IC50: 0.45 µM

Structure (SMILES): O=C(Nc1nc2cc(-c3cccc(C(F)(F)F)c3)ccc2[nH]1)c1cn2cc(CNC3CCCC3)ccc2n1 [Example 180, 6-Cyclopentylaminomethyl-imidazo[1,2-a]pyridine-2-carboxylic acid [5-(3-trifluoromethyl-phenyl)-1H-benzoimidazol-2-yl]-amide]
- IC50: 0.51 µM

Structure (SMILES): Cc1cccc2nc(C(=O)Nc3nc4cc(-c5ccc(C6CCCCC6)cc5)ccc4[nH]3)cn12 [Example 101, 5-Methyl-imidazo[1,2-a]pyridine-2-carboxylic acid [5-(4-cyclohexyl-phenyl)-1H-benzoimidazol-2-yl]-amide]
- IC50: 0.3 µM

Structure (SMILES): COCCNC(=O)c1cccn2cc(C(=O)Nc3nc4cc(-c5cccc(C(F)(F)F)c5)ccc4[nH]3)nc12 [Example 231, Imidazo[1,2-a]pyridine-2,8-dicarboxylic acid 8-[(2-methoxy-ethyl)-amide] 2-{[5-(3-trifluoromethyl-phenyl)-1H-benzoimidazol-2-yl]-amide}]
- IC50: 0.31 µM

Structure (SMILES): O=C(Nc1nc2cc(-c3cc(F)cc(Cl)c3)ccc2[nH]1)c1cn2cc(F)cc(OCCN3CCCCC3)c2n1 [Example 147, 6-Fluoro-8-(2-piperidin-1-yl-ethoxy)-imidazo[1,2-a]pyridine-2-carboxylic acid [5-(3-chloro-5-fluoro-phenyl)-1H-benzoimidazol-2-yl]-amide]
- IC50: 0.41 µM

Structure (SMILES): CCOc1cc(F)cn2cc(C(=O)Nc3nc4cc(-c5cc(F)cc(Cl)c5)ccc4[nH]3)nc12 [Example 129, 8-Ethoxy-6-fluoro-imidazo[1,2-a]pyridine-2-carboxylic acid [5-(3-chloro-5-fluoro-phenyl)-1H-benzoimidazol-2-yl]-amide]
- IC50: 0.43 µM

Structure (SMILES): O=C(Nc1nc2cc(-c3cccc(Cl)c3)ccc2[nH]1)c1cn2cc(OCCOC3CCCCO3)ccc2n1 (stereo not drawn) [Example 234, 6-[2-(Tetrahydro-pyran-2-yloxy)-ethoxy]-imidazo[1,2-a]pyridine-2-carboxylic acid [5-(3-chloro-phenyl)-1H-benzoimidazol-2-yl]-amide]
- IC50: 0.35 µM

Structure (SMILES): CCN(CC)Cc1cccc2nc(C(=O)Nc3nc4cc(-c5cccc(C(F)(F)F)c5)ccc4[nH]3)cn12 [Example 168, 5-Diethylaminomethyl-imidazo[1,2-a]pyridine-2-carboxylic acid [5-(3-trifluoromethyl-phenyl)-1H-benzoimidazol-2-yl]-amide]
- IC50: 0.65 µM

Structure (SMILES): O=C(Nc1nc2cc(OCc3cc(F)cc(F)c3)ccc2[nH]1)c1cn2cc(Cl)ccc2n1 [Example 16, 6-Chloro-imidazo[1,2-a]pyridine-2-carboxylic acid [5-(3,5-difluoro-benzyloxy)-1H-benzoimidazol-2-yl]-amide]
- IC50: 0.17 µM

Structure (SMILES): Cc1cccc2nc(C(=O)Nc3nc4cc(-c5ccc(OC(C)C)c(Cl)c5)ccc4[nH]3)cn12 [Example 90, 5-Methyl-imidazo[1,2-a]pyridine-2-carboxylic acid [5-(3-chloro-4-isopropoxy-phenyl)-1H-benzoimidazol-2-yl]-amide]
- IC50: 0.49 µM

Structure (SMILES): Cc1c(C#CCO)ccc2nc(C(=O)Nc3nc4cc(-c5cccc(C(F)(F)F)c5)ccc4[nH]3)cn12 [Example 238, 6-(3-Hydroxy-prop-1-ynyl)-5-methyl-imidazo[1,2-a]pyridine-2-carboxylic acid [5-(3-trifluoromethyl-phenyl)-1H-benzoimidazol-2-yl]-amide]
- IC50: 0.22 µM

Structure (SMILES): COCCOc1cc(F)cn2cc(C(=O)Nc3nc4cc(-c5cc(F)cc(Cl)c5)ccc4[nH]3)nc12 [Example 140, 6-Fluoro-8-(2-methoxy-ethoxy)-imidazo[1,2-a]pyridine-2-carboxylic acid [5-(3-chloro-5-fluoro phenyl)-1H-benzoimidazol-2-yl]-amide]
- IC50: 0.25 µM

Structure (SMILES): O=C(Nc1nc2cc(-c3cccc(C(F)(F)F)c3)ccc2[nH]1)c1cn2c(CNCc3ccccc3)cccc2n1 [Example 173, 5-(Benzylamino-methyl)-imidazo[1,2-a]pyridine-2-carboxylic acid [5-(3-trifluoromethyl-phenyl)-1H-benzoimidazol-2-yl]-amide]
- IC50: 0.57 µM
